# According to patent US20240382483A1, “HETEROCYCLIC EGFR INHIBITORS FOR USE IN THE TREATMENT OF CANCER” (Blueprint Medicines Corporation, priority 2021, published 2024):
# Like-named read-outs stand apart in the source and are kept apart here.
# What was measured:
# [1] = target: T1, EGFR (L858R T790M C797S) (Homo sapiens, UniProt P00533, C797S/L858R/T790M); test: Biochemical EGFR inhibition assay (Caliper mobility shift), EGFR LRTMCS; conditions: LRTMCS (PH) IC50 (nM) @ 1 mM ATP (Num), EGFR LRTMCS mutant
# T1 construct: purchased SignalChem E10-122VG
# Protocol: Reactions proceeded until between 10% to 20% total peptides were phosphorylated at room temperature (25° C.) and were terminated with 35 mM 2,2′,2″,2′″-(ethane-1,2-diyldinitrilo)tetraacetic acid (EDTA). Product was detected using the Caliper mobility shift detection method where the phosphorylated peptide (product) and substrate were electrophoretically separated and measured. Percent activity was plotted against log concentration of compound and points to generate an apparent IC50.
# [2] = target: T2, intracellular phosphorylation of EGFR in NCI-H1975 cell line that harbors the EGFR L858R T790M mutations (Homo sapiens, UniProt P00533, L858R/T790M); test: NCI-H1975 pEGFR AlphaLISA assay; format: cell-based; conditions: NCI-H1975 cells (EGFR L858R T790M), p-EGFR (Tyr1068), 4-5 hours incubation
# T2 construct: NCI-H1975 cell line that harbors the EGFR L858R T790M mutations (ATCC, CRL-5908); host or cells: NCI-H1975
# Protocol: On the next day, the test compounds and DMSO control were added into H1975 cell plate followed by incubation at 37C/5% CO2 for 4-5 hours. […] Then 5 μL of a donor bead mix was added to each well followed by overnight incubation at room temperature in dark. On the next day, the plate was read at a compatible plate reader to obtain pEGFR signal. Percent of pEGFR inhibition was plotted against log concentration of compounds to generate IC50 values.
# [3] = read-out: Ext pEGFR H1975 GMean IC50 (nM) Protocol: @Pharmaron AlphaLISA (Num)
# T1 sequence (P00533 25-1210 T790M/C797S/L858R): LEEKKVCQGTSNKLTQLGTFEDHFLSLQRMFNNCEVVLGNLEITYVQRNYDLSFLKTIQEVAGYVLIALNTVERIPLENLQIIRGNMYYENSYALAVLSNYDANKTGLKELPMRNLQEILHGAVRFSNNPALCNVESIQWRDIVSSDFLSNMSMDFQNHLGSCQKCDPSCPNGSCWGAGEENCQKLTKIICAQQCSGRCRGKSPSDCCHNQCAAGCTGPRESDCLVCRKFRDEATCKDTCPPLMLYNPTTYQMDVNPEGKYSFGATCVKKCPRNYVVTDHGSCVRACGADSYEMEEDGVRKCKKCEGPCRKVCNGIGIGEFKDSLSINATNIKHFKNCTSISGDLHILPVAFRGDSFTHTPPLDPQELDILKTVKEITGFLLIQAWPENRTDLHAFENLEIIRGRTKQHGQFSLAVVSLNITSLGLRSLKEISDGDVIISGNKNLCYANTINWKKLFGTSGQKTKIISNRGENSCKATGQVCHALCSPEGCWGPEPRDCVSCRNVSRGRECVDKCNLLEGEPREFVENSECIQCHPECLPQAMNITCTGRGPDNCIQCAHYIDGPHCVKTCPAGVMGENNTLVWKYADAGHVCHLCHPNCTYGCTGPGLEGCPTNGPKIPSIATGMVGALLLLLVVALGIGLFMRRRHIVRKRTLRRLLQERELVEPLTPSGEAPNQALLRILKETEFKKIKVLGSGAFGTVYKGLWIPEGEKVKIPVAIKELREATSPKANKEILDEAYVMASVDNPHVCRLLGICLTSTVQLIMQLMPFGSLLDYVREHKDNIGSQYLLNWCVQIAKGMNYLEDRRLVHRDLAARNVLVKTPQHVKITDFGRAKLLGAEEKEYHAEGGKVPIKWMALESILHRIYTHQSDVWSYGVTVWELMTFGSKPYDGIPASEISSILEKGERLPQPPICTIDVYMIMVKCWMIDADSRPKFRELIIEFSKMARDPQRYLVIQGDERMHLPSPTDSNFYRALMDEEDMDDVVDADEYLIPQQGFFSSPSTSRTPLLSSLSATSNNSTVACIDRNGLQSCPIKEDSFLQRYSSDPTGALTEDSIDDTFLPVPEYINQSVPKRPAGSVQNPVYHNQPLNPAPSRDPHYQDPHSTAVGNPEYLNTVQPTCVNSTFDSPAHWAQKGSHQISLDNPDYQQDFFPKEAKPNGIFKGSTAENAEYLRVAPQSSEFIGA
# T2 sequence (P00533 25-1210 T790M/L858R): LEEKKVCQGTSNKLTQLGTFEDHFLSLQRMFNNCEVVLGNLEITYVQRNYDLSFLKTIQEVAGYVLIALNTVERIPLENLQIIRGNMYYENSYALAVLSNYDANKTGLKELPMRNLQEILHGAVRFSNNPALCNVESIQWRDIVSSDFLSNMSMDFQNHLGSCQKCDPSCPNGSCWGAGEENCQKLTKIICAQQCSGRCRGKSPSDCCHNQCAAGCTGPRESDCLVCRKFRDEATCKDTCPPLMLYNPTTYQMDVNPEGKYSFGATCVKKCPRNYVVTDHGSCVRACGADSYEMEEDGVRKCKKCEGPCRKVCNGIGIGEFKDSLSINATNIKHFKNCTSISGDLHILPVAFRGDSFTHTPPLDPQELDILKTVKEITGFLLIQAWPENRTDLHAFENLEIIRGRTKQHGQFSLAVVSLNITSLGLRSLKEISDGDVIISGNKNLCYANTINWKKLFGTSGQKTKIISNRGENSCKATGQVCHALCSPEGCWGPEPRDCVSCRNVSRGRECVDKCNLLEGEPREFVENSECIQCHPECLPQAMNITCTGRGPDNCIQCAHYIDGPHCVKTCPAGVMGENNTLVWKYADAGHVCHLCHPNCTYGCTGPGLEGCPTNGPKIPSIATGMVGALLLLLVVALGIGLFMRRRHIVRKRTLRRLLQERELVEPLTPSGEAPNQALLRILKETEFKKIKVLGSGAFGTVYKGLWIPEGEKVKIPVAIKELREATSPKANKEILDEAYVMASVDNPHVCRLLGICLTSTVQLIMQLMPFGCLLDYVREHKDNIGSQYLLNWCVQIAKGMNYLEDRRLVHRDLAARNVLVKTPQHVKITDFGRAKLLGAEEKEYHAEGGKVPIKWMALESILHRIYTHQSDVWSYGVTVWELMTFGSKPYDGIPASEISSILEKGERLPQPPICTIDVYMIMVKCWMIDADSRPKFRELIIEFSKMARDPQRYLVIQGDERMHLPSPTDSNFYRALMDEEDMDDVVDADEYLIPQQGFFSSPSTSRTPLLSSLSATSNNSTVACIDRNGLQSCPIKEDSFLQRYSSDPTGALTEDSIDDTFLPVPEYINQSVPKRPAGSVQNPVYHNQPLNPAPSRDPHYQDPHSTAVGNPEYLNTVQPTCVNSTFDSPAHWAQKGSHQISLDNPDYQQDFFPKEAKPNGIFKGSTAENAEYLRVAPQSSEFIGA
IC50 [1] [nM],"IC50 [2, 3] [nM]",IC50 ([2]; Ext pEGFR H1975 GMean IC50 (nM) Protocol: @Pharmaron AlphaLISA (Num)) [nM],SMILES
30 to 100,> 50,–,"CC(C)c1cnc(N2C[C@H](O)[C@H]2C)c2cnc(Nc3ccnc(N4C[C@H](F)[C@H](O)[C@](C)(F)C4)n3)cc12 (single isomer, unassigned) [Example 134, (3R,4S,5S)-3,5-difluoro-1-(4-((8-((2R,3S)-3-hydroxy-2-methylazetidin-1-yl)-5-isopropyl-2,7-naphthyridin-3-yl)amino)pyrimidin-2-yl)-3-methylpiperidin-4-ol or (3S,4R,5R)-3,5-difluoro-1-(4-((8-((2R,3S)-3-hydroxy-2-methylazetidin-1-yl)-5-isopropyl-2,7-naphthyridin-3-yl)amino)pyrimidin-2-yl)-3-methylpiperidin-4-ol]"
20 to 30,> 50,–,"CC(C)c1cnc(N2C[C@H](O)[C@H]2C)c2cnc(Nc3ccnc(N4C[C@H](F)[C@H](O)[C@@](C)(F)C4)n3)cc12 (single isomer, unassigned) [Example 135, (3S,4S,5S)-3,5-difluoro-1-(4-((8-((2R,3S)-3-hydroxy-2-methylazetidin-1-yl)-5-isopropyl-2,7-naphthyridin-3-yl)amino)pyrimidin-2-yl)-3-methylpiperidin-4-ol or (3R,4R,5R)-3,5-difluoro-1-(4-((8-((2R,3S)-3-hydroxy-2-methylazetidin-1-yl)-5-isopropyl-2,7-naphthyridin-3-yl)amino)pyrimidin-2-yl)-3-methylpiperidin-4-ol]"
< 15,20 to 30,–,"CC(C)c1cnc(N2C[C@H](O)[C@H]2C)c2cnc(Nc3ccnc(N4C[C@@H](F)[C@@H](O)[C@](C)(F)C4)n3)cc12 (single isomer, unassigned) [Example 136, (3R,4R,5R)-3,5-difluoro-1-(4-((8-((2R,3S)-3-hydroxy-2-methylazetidin-1-yl)-5-isopropyl-2,7-naphthyridin-3-yl)amino)pyrimidin-2-yl)-3-methylpiperidin-4-ol or (3S,4S,5S)-3,5-difluoro-1-(4-((8-((2R,3S)-3-hydroxy-2-methylazetidin-1-yl)-5-isopropyl-2,7-naphthyridin-3-yl)amino)pyrimidin-2-yl)-3-methylpiperidin-4-ol]"
< 15,20 to 30,–,"CC(C)c1cnc(N2C[C@H](O)[C@H]2C)c2cnc(Nc3ccnc(N4C[C@@H](F)[C@@H](O)C(C)(C)C4)n3)cc12 (single isomer, unassigned) [Example 145, (4S,5R)-5-fluoro-1-(4-((8-((2R,3S)-3-hydroxy-2-methylazetidin-1-yl)-5-isopropyl-2,7-naphthyridin-3-yl)amino)pyrimidin-2-yl)-3,3-dimethylpiperidin-4-ol or (4R,5S)-5-fluoro-1-(4-((8-((2R,3S)-3-hydroxy-2-methylazetidin-1-yl)-5-isopropyl-2,7-naphthyridin-3-yl)amino)pyrimidin-2-yl)-3,3-dimethylpiperidin-4-ol]"
< 15,30 to 50,–,"CC(C)c1cnc(N2CC(O)C2)c2cnc(Nc3ccnc(N4CC[C@@]5(CCO5)C(F)(F)C4)n3)cc12 (single isomer, unassigned) [Example 146, (R)-1-(6-((2-(5,5-difluoro-1-oxa-7-azaspiro[3.5]nonan-7-yl)pyrimidin-4-yl)amino)-4-isopropyl-2,7-naphthyridin-1-yl)azetidin-3-ol or (S)-1-(6-((2-(5,5-difluoro-1-oxa-7-azaspiro[3.5]nonan-7-yl)pyrimidin-4-yl)amino)-4-isopropyl-2,7-naphthyridin-1-yl)azetidin-3-ol]"
< 15,< 10,–,"CC(C)c1cnc(N2C[C@@H](C(=O)N(C)C)[C@@H]2C)c2cnc(Nc3ccnc(N4CC[C@@H](O)[C@@](C)(F)C4)n3)cc12 (single isomer, unassigned) [Example 155, (2S,3R)-1-(6-((2-((3S,4R)-3-fluoro-4-hydroxy-3-methylpiperidin-1-yl)pyrimidin-4-yl)amino)-4-isopropyl-2,7-naphthyridin-1-yl)-N,N,2-trimethylazetidine-3-carboxamide or (2R,3S)-1-(6-((2-((3S,4R)-3-fluoro-4-hydroxy-3-methylpiperidin-1-yl)pyrimidin-4-yl)amino)-4-isopropyl-2,7-naphthyridin-1-yl)-N,N,2-trimethylazetidine-3-carboxamide]"
20 to 30,> 50,–,"C[C@H]1CCN1c1ncc(CC2(C)COC2)c2cc(Nc3ccnc(N4CC[C@@H](O)[C@@](C)(F)C4)n3)ncc12 (single isomer, unassigned) [Example 156, (3S,4R)-3-fluoro-3-methyl-1-(4-((8-((S)-2-methylazetidin-1-yl)-5-((3-methyloxetan-3-yl)methyl)-2,7-naphthyridin-3-yl)amino)pyrimidin-2-yl)piperidin-4-ol or (3S,4R)-3-fluoro-3-methyl-1-(4-((8-((R)-2-methylazetidin-1-yl)-5-((3-methyloxetan-3-yl)methyl)-2,7-naphthyridin-3-yl)amino)pyrimidin-2-yl)piperidin-4-ol]"
< 15,> 50,–,"C[C@H](C#N)c1ncc(N2CC[C@H]2C)c2cnc(Nc3ccnc(N4CC[C@@H](O)[C@@](C)(F)C4)n3)cc12 (single isomer, unassigned) [Example 157, (S)-2-(7-((2-((3S,4R)-3-fluoro-4-hydroxy-3-methylpiperidin-1-yl)pyrimidin-4-yl)amino)-4-((R)-2-methylazetidin-1-yl)-2,6-naphthyridin-1-yl)propanenitrile or (R)-2-(7-((2-((3S,4R)-3-fluoro-4-hydroxy-3-methylpiperidin-1-yl)pyrimidin-4-yl)amino)-4-((R)-2-methylazetidin-1-yl)-2,6-naphthyridin-1-yl)propanenitrile]"
15 to 20,30 to 50,–,"C[C@H](CO)c1ccc(N2CC[C@H]2C)c2cnc(Nc3ccnc(N4CC[C@@H](O)[C@@](C)(F)C4)n3)cc12 (single isomer, unassigned) [Example 158, (3S,4R)-3-fluoro-1-(4-((5-((S)-1-hydroxypropan-2-yl)-8-((R)-2-methylazetidin-1-yl)isoquinolin-3-yl)amino)pyrimidin-2-yl)-3-methylpiperidin-4-ol or (3S,4R)-3-fluoro-1-(4-((5-((R)-1-hydroxypropan-2-yl)-8-((R)-2-methylazetidin-1-yl)isoquinolin-3-yl)amino)pyrimidin-2-yl)-3-methylpiperidin-4-ol]"
< 15,10 to 20,–,"CC(C)c1cnc(N2CC[C@@H]2C)c2cnc(Nc3ccnc(N4CC[C@@H](O)[C@@H](F)C4)n3)cc12 (single isomer, unassigned) [Example 159, (3S,4R)-3-fluoro-1-(4-((5-isopropyl-8-((S)-2-methylazetidin-1-yl)-2,7-naphthyridin-3-yl)amino)pyrimidin-2-yl)piperidin-4-ol or (3S,4R)-3-fluoro-1-(4-((5-isopropyl-8-((R)-2-methylazetidin-1-yl)-2,7-naphthyridin-3-yl)amino)pyrimidin-2-yl)piperidin-4-ol]"
< 15,10 to 20,–,"CC(C)c1cnc(N2CC[C@@H]2C)c2cnc(Nc3ccnc(N4CC[C@H](O)[C@H](F)C4)n3)cc12 (single isomer, unassigned) [Example 160, (3R,4S)-3-fluoro-1-(4-((5-isopropyl-8-((S)-2-methylazetidin-1-yl)-2,7-naphthyridin-3-yl)amino)pyrimidin-2-yl)piperidin-4-ol or (3R,4S)-3-fluoro-1-(4-((5-isopropyl-8-((R)-2-methylazetidin-1-yl)-2,7-naphthyridin-3-yl)amino)pyrimidin-2-yl)piperidin-4-ol]"
< 15,–,30 to 50,"C[C@@H]1CCN1c1ncc(-c2cccnc2F)c2cc(Nc3ccnc(N4CC[C@@H](O)[C@@H](F)C4)n3)ncc12 (single isomer, unassigned) [Example 161, (3S,4R)-3-fluoro-1-(4-((5-(2-fluoropyridin-3-yl)-8-((R)-2-methylazetidin-1-yl)-2,7-naphthyridin-3-yl)amino)pyrimidin-2-yl)piperidin-4-ol or (3S,4R)-3-fluoro-1-(4-((5-(2-fluoropyridin-3-yl)-8-((S)-2-methylazetidin-1-yl)-2,7-naphthyridin-3-yl)amino)pyrimidin-2-yl)piperidin-4-ol]"
< 15,30 to 50,–,"C[C@@H]1CCN1c1ncc([C@@H]2CCOC2)c2cc(Nc3ccnc(N4CC[C@@H](O)[C@@H](F)C4)n3)ncc12 (single isomer, unassigned) [Example 162, (3S,4R)-3-fluoro-1-(4-((8-((R)-2-methylazetidin-1-yl)-5-((S)-tetrahydrofuran-3-yl)-2,7-naphthyridin-3-yl)amino)pyrimidin-2-yl)piperidin-4-ol or (3S,4R)-3-fluoro-1-(4-((8-((R)-2-methylazetidin-1-yl)-5-((R)-tetrahydrofuran-3-yl)-2,7-naphthyridin-3-yl)amino)pyrimidin-2-yl)piperidin-4-ol]"
